Target: T1, hNav1.7 (Homo sapiens, UniProt Q15858)
T1 construct: expressed in transfected cells
Experiment: Tritiated compound competitive binding to membranes from cells heterologously expressing hNav1.7 and the β1 subunit (LBA)
Details: read-out: NaV1.7 (LBA)
Method: Example 19 Tritiated Compound Binding to Membranes Isolated from Cells that Heterologously Express hNav1.7 and the β1 Subunit
Preparation of membranes containing recombinantly expressed sodium channels: Frozen recombinant cell pellets were thawed on ice and diluted to 4 times the cell pellet weight with ice cold 50 mM Tris HCl, pH 7.4 buffer. The cell suspensions were homogenized on ice using a motorized glass dounce homogeniser. Homogenates were further diluted 8.4 times with ice cold 50 mM Tris HC1, pH 7.4 buffer and then centrifuged at 200× g at 4° C. for 15 min. The supernatants were collected and centrifuged at 10000× g at 4° C. for 50 min. The pellets were then re-suspended in 100 mM NaCl, 20 mM Tris HCl, pH 7.4 buffer containing 1% v/v protease inhibitors (Calbiochem) and re-homogenized on ice. The homogenized membranes were then processed through a syringe equipped with a 26 gauge needle. Protein concentrations were determined by Bradford Assay and the membranes were stored at −80° C.
Radioligand Binding Studies: Saturation experiments. A competitive NaV1.7 inhibitor having a methyl group was tritiated. Three tritiums were incorporated in place of methyl hydrogens to generate[^3H]compound. Binding of this radioligand was performed in 5 mL borosilicate glass test tubes at room temperature. Binding was initiated by adding membranes to increasing concentrations of [^3H]compound in 100 mM NaCl, 20 mM Tris HCl, pH 7.4 buffer containing 0.01% w/v bovine serum albumin (BSA) for 18 h. Non-specific binding was determined in the presence of 1 μM unlabeled compound. After 18 h, the reactants were filtered through GF/C glass fiber filters presoaked in 0.5% w/v polyethylene imine. Filters were washed with 15 mL ice cold 100 mM NaCl, 20 mM Tris HCl, pH7.4 buffer containing 0.25% BSA to separate bound from free ligand. [^3H]compound bound to filters was quantified by liquid scintillation counting.
Competitive binding experiments: Binding reactions were performed in 96-well polypropylene plates at room temperature for 18 h. In 360 μL, membranes were incubated with 100 pM [^3H]compound and increasing concentrations of Test Compound. Non-specific binding was defined in the presence of 1 μM unlabeled compound. Reactions were transferred and filtered through 96-well glass fiber/C filter plates presoaked with 0.5% polyethylene imine. The filtered reactions were washed 5 times with 200 μL ice cold buffer containing 0.25% BSA. Bound radioactivity was determined by liquid scintillation counting.
Data Analysis: For saturation experiments, non-specific binding was subtracted from total binding to provide specific binding and these values were recalculated in terms of pmol ligand bound per mg protein. Saturation curves were constructed and dissociation constants were calculated using the single site ligand binding model: Beq=(Bmax*X)/(X+Kd), where Beq is the amount of ligand bound at equilibrium, Bmax is the maximum receptor density, Kd is the dissociation constant for the ligand, and X is the free ligand concentration. For competition studies percent inhibition was determined and IC50 values were calculated using a 4 parameter logistic model (% inhibition=(A+((B−A)/(1+((x/C)^D)))) using XLfit, where A and B are the maximal and minimum inhibition respectively, C is the IC50 concentration and D is the (Hill) slope.

T1 sequence (Q15858 whole entry): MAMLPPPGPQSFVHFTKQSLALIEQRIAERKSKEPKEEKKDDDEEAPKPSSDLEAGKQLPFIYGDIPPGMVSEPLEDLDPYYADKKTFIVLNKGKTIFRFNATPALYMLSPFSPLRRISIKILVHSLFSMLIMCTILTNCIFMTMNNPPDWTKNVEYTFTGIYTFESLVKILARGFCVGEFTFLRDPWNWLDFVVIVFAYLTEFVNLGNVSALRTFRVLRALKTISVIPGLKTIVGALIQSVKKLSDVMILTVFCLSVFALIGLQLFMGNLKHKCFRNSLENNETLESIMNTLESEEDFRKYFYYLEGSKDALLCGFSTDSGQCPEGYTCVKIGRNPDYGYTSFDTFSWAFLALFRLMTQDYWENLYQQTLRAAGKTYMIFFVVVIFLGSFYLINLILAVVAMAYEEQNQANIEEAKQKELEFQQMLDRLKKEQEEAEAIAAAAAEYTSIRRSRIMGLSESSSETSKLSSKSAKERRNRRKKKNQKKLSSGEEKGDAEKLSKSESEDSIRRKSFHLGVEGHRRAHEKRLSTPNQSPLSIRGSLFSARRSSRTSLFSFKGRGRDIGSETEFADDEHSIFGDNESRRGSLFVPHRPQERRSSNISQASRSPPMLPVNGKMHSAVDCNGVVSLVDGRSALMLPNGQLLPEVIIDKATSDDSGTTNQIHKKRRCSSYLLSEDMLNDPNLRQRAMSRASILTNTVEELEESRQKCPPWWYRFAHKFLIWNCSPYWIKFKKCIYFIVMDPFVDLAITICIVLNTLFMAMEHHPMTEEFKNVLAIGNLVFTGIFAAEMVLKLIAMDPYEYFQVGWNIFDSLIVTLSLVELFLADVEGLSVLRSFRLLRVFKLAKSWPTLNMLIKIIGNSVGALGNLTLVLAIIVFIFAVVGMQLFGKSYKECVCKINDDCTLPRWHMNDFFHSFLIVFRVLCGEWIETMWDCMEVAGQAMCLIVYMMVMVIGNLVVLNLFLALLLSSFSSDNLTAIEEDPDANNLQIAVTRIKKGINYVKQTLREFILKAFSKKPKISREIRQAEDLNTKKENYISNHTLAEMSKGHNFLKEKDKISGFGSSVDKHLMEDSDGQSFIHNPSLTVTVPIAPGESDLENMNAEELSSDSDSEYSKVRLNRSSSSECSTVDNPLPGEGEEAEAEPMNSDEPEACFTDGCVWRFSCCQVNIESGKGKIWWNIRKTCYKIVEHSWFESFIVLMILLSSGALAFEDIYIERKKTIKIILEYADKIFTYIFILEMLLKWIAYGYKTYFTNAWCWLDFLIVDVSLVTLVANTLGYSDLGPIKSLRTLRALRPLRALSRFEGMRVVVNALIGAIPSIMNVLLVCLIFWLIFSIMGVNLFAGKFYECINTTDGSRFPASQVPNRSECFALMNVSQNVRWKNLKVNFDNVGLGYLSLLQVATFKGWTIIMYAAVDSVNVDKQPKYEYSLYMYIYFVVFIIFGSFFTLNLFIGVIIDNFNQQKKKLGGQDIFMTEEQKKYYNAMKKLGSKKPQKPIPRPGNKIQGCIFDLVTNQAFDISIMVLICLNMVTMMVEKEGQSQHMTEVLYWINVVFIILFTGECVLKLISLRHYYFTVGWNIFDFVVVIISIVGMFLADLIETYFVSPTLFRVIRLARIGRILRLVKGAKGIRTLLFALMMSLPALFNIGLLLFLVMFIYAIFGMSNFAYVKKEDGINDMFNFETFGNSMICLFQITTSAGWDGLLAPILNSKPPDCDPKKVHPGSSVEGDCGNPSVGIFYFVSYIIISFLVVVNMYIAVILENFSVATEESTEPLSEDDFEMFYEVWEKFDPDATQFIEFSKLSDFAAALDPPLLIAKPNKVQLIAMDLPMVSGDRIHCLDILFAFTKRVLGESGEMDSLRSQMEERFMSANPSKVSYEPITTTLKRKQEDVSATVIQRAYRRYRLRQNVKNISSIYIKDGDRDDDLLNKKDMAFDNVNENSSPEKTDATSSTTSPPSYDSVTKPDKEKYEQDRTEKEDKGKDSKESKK
T1 sequence (Q07699 19-218 partner): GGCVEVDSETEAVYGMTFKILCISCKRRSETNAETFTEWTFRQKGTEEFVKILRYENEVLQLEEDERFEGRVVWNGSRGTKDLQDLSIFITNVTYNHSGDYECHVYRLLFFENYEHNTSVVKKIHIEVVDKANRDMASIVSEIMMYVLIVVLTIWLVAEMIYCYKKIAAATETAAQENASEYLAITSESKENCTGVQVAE

Row | IC50 [nM] | Compound
1 | 4200 | O=C(c1cc(Cl)c(OCC23CC4CC(CC(C4)C2)C3)cc1F)[C@H]1CCC[C@H]1C(=O)O [Example 3]
2 | 21 | O=C(O)[C@@H]1CCC[C@H]1C(=O)c1cc(C2CC2)c(OCC2CCN(Cc3cc(C(F)(F)F)ccc3Cl)CC2)cc1F [Example 13, (1R,2R)-2-(4-((1-(2-chloro-5-(trifluoromethyl)benzyl)piperidin-4-yl)methoxy)-5-cyclopropyl-2-fluorobenzoyl)cyclopentane-1-carboxylic acid]
3 | 2630 | O=C(O)C1CCCC1Sc1cc(Cl)c(OCC23CC4CC(CC(C4)C2)C3)cc1F (stereo not drawn) [Example 14]
4 | 3020 | O=C(O)C1CCCC1Nc1cc(Cl)c(OCC23CC4CC(CC(C4)C2)C3)cc1F (stereo not drawn) [Example 17, 2-((4-adamant-1-ylmethoxy)-5-chloro-2-fluoro-anilino)cyclopentanecarboxylic acid]
5 | 860 | O=C(O)[C@@H]1CCC[C@H]1C(=O)c1cc(C2CC2)c(OCc2ccccc2)cc1F (relative stereo) [Example 8, trans-2-(4-(benzyloxy)-5-cyclopropyl-2-fluorobenzoyl)-cyclopentane-1-carboxylic acid]
6 | 760 | O=C(O)[C@@H]1CC[C@H]1C(=O)c1cc(C2CC2)c(OCC23CC4CC(CC(C4)C2)C3)cc1F (racemic) [Example 7]
7 | 440 | O=C(O)[C@@H]1CCC[C@H]1C(=O)c1cc(Cl)c(OCC23CC4CC(CC(C4)C2)C3)cc1F [Example 4]
8 | 3100 | O=C(O)[C@@H]1CCC[C@H]1Cc1cc(C2CC2)c(OCC23CC4CC(CC(C4)C2)C3)cc1F [Example 5]
9 | 454 | O=C(O)[C@@H]1CCC[C@H]1S(=O)(=O)c1cc(Cl)c(OCC23CC4CC(CC(C4)C2)C3)cc1F (racemic) [Example 15]
10 | 51 | C[C@@H](c1cc(Cl)cc(Cl)c1)N1CCC(COc2cc(F)c(C(=O)[C@@H]3CCC[C@H]3C(=O)O)cc2C2CC2)CC1 [Example 9, (1,2-trans)-2-(5-cyclopropyl-4-((1-((S)-1-(3,5-dichlorophenyl)ethyl)piperidin-4-yl)methoxy)-2-fluorobenzoyl)cyclopentane-1-carboxylic acid]
11 | 21 | O=C(O)[C@@H]1CCC[C@H]1C(=O)c1cc(C2CC2)c(COc2cc(Cl)cc(Cl)c2)cc1F (relative stereo) [Example 10, (1,2-trans)-2-(5-cyclopropyl-4-((3,5-dichlorophenoxy)methyl)-2-fluorobenzoyl)cyclopentane-1-carboxylic acid]
12 | 510 | O=C(O)[C@H]1CCC[C@@H]1C(=O)c1cc(C2CC2)c(OCC23CC4CC(CC(C4)C2)C3)cc1F [Example 2]
13 | 55 | O=C(O)[C@@H]1CCCC[C@H]1C(=O)c1cc(C2CC2)c(OCC23CC4CC(CC(C4)C2)C3)cc1F [Example 6]
14 | 3 | C[C@@H]1CC[C@H](C(=O)c2cc(C3CC3)c(OCC34CC5CC(CC(C5)C3)C4)cc2F)[C@H]1C(=O)O [Example 12]
15 | 700 | C[C@H]1CC[C@@H](C(=O)c2cc(C3CC3)c(OCC34CC5CC(CC(C5)C3)C4)cc2F)[C@@H]1C(=O)O [Example 11]
16 | > 10000 | CN(c1cc(Cl)c(OCC23C[C@H]4C[C@@H](C2)C[C@@H](C3)C4)cc1F)[C@@H]1CCC[C@H]1C(=O)O (relative stereo) [Example 18, 2-(4-(1-adamantylmethoxy)-5-chloro-2-fluoro-N-methylanilino)-cyclopentanecarboxylic acid]
17 | 1290 | O=C(O)[C@@H]1CCC[C@H]1[S+]([O-])c1cc(Cl)c(OCC23CC4CC(CC(C4)C2)C3)cc1F (stereo in doubt) [Example 16]
18 | 9 | O=C(O)[C@@H]1CCC[C@H]1C(=O)c1cc(C2CC2)c(OCC23CC4CC(CC(C4)C2)C3)cc1F [Example 1]
